# Laboratory results: patent US20230190887A1, “TARGETING G3BP AGGREGATION TO PREVENT NEURODEGENERATION” (priority 2019, published 2023)
# “Also recorded” adds a separate entry of the source.
# How the values were obtained:
# [1] = test system: G3BP1 aggregates in midbrain neurons; test: Endogenous G3BP1 aggregates in MPP+-treated midbrain neurons; type: cell-based, rat; conditions: MPP+ plus peptide
# Description: (§1) Given that the G3BP1 190-208 peptide prevents degeneration induced by treatment with neurotoxins such as MPP+ and Aβ oligomer and decreases G3BP1 aggregates formed due MPP+ and Aβ treatment.
# (§2) (A) Size of endogenous G3BP1 aggregates per 100 μm of neurite is shown as indicated bins from midbrain cultures under control conditions and after treatment with MPP+alone or with 190-208 G3BP1 or 168-189 peptides. (B) Size distribution of endogenous G3BP1 aggregates per 100 μm of neurite is shown from cortical neurons treated with 1 μM Aβpeptide or with […] 190-208 G3BP1 or 168-189 control peptide. Non-treated neurons were used as a control. […] (N≥90 over 3 cultures; by two-way ANOVA with Tukey HSD post-hoc).
# [2] = test system: axons of E18 cortical neurons; test: Aβ oligomer-mediated axon degeneration in microfluidic cultures; type: cell-based; conditions: axons only exposed: Aβ oligomer 1 μM for 16 hours ± 190-208 G3BP1 peptide 1 μM
# Protocol: To test whether the cell permeable G3BP1 190-208 peptide protects against this early axonal degeneration, the current disclosure exposed only the axons of E18 cortical neuron cultures to Aβ peptide using microfluidic cultures (FIG. 16A). […] Thus, the cell permeable G3BP1 190-208 peptide protects axons from the neurotoxic effects of Aβ oligomers through axon intrinsic mechanisms.
# E18 cortical neurons were plated into the cell-body compartment (blue); after 7 DIV axons from these neurons extend through the microchannels into the axon compartment (pink). […] Yellow line indicates the exit of the axons from the microchannels.
# [3] = test system: G3BP1 aggregates in cortical neurons; test: Endogenous G3BP1 aggregates in Aβ-treated cortical neurons; type: cell-based, rat; conditions: Aβ oligomers plus peptide
# Description: as §1, §2
# [4] = test system: motor neurons generated from human induced pluripotent stem cells; test: Neurite growth of hiPSC-derived motor neurons; type: cell-based; conditions: 20 μM peptide, assessed 24 h later
# Protocol: Human induced pluripotent stem cells (hiPSCs) were maintained in dishes coated with Matrigel (Corning) in Flex8 media (ThermoFisher). hiPSCs were differentiated into human motor neurons using a directed differentiation protocol optimized by Kevin Eggan. 7000 neurons/well were plated on laminin—or CSPG coated 96 well plates. 100 μl at 10 μg/ml Laminin (ThermoFisher) and 25 ng CSPGs (Millipore) were used per well.
# For peptide treatments, 10 μM Tat-fused peptides were added to dissociated DRG cultures at 2 or 12 h after plating. Neurite outgrowth was assessed 24 h after addition of peptides. For the cortical cultures, 10 μM peptide was applied to the axonal compartment at 3 d in vitro (DIV) and axonal growth was assessed at 6 DIV. For iMotor neurons, 20 μM peptides were immediately added and neurite growth was assessed 24 h later.
# For neurite outgrowth, images from 60 h DRG cultures were analyzed for neurite outgrowth using WIS-Neuromath. Axon morphology was visualized using GFP and/or NF immunofluorescence as described. Differentiated hiPSC neuron image acquisition and neurite length quantification was performed using Arrayscan XTI (Thermo Fisher).
# [5] = test system: GFP^MYR/mCh^MYR translation reporters in DRG axons; test: FRAP of axonal translation reporters; type: cell-based, rat; conditions: 10 μM peptide 30 min
# Protocol: Fluorescence recovery after photobleaching (FRAP). FRAP was used to test for axonal mRNA protein synthesis using diffusion-limited GFP^MYR and mCherry^MYR reporters as described with minor modifications. In each case, DRG neurons were co-transfected with GFP^MYR 5′/3′nrn1+mCherry^MYR 5′/3′gap43 or GFP^MYR 5′/3′impβ1+mCherry^MYR5′/3′gap43 so that recovery of both reporters could be analyzed simultaneously. Cells were maintained at 37° C., 5% CO2 during imaging sequences. 488 nm and 514 nm laser lines on Leica SP8X confocal microscope were used to bleach GFP and mCherry signals, respectively (Argon laser at 70% power, pulsed every 0.82 s for 80 frames). Pinhole was set to 3 Airy units to ensure full thickness bleaching and acquisition (63×/1.4 NA oil immersion objective). Prior to photobleaching, neurons were imaged every 60 s for 2 min to acquire baseline fluorescence the region of interest (ROI; 15% laser power, 498-530 nm for GFP and 565-597 nm for mCherry emissions, respectively). The same excitation and emission parameters were used to assess recovery over 15 min post-bleach with images acquired at 30 s intervals. To determine if fluorescence recovery in axons was from translation, cultures were treated with 150 μg/ml cycloheximide (Sigma) or 100 μm anisomycin (Sigma) for 30 min prior to photobleaching for GFP^MYR 5′/3′nrn1+mCherry^MYR 5′/3′gap43 and GFP^MYR 5′/3′impβ1+mCh^MYR 5′/3′gap43 transfected DRGs, respectively. […] Photobleaching followed by analyses of recovery was performed after 30 min of peptide exposure.
# For normalizing across experiments, fluorescence intensity value at t=0 min postbleach from each image sequence was set as 0%. The percentage of fluorescence recovery at each time point after photobleaching was then calculated by normalizing relative to the pre-bleach fluorescence intensity (set at 100%).
# [6] = test system: E12.5 motor neurons; test: MPP+-induced degeneration of motor neuron neurites (in vitro ALS model); type: cell-based, mouse; conditions: DIV7 E12.5 motor neurons, 100 μM MPP+ 16-18 hours, with 10 μM peptide
# Protocol: Non-treated cultures were used as controls (FIG. 3A).
# (A) Quantification of mitotoxin/neurotoxin MPP+-induced degeneration of DIV7 E12.5 motor neuron neurites after exposure of cultures to 100 μM MPP+ and either 10 μM 190-208 G3BP1 or 168-189 control peptide. As controls, neurons treated with solvents were used. (B) Representative images of G3BP1 (green) and NF-labeled (red) E12.5 motor neurons under control or after treatment with 100 μM MPP+ [scale bar=10 μm]. (C) distribution of sizes of endogenous G3BP1 aggregate per 100 μm neurite is shown as indicated bins from motor neurons cultures as treated in (B). (N≥80 neurites over three repetitions; by one-way ANOVA with Tukey HSD post-hoc). […] (D) Endogenous G3BP1 aggregate sizes per 100 μm neurite indicated as bins for motor neurons either untreated or treated with MPP+ alone or with addition of 10 μM 190-208 G3BP1 or 168-189 control peptide. […] (N≥90 over 3 cultures; by one-way ANOVA with Tukey HSD post-hoc)
# [7] = listed as 190-208 G3BP1 peptide
substance,measurement,setting,value
YGNKKNNNQNNN-VVEPEPEPEPEPEPEPVSE [G3BP1 190-208 peptide],size of endogenous G3BP1 aggregates per 100 μm of neurite,[1],decrease in the size of G3BP1 aggregates
same,size of endogenous G3BP1 aggregates per 100 μm of neurite,[1]; [7],disassembly of G3BP1 granules
same,axon degeneration,[2],near completely prevented this axon degeneration; also recorded: rescues amyloid beta oligomer-mediated axonal degeneration
same,size of endogenous G3BP1 aggregates per 100 μm of neurite,[3],decrease in the size of G3BP1 aggregates
same,size of endogenous G3BP1 aggregates per 100 μm of neurite,[3]; [7],disassembly of G3BP1 granules
same,neurite length,[4],significantly increased neurite length
same,axonal translation of GFP^MYR 5′/3′nrn1,[5]; G3BP1 overexpression (G3BP1-BFP),reversed the decrease in axonal translation; also recorded: increased
same,axonal translation of GFP^MYR 5′/3′impβ1,[5]; G3BP1 overexpression,did not rescue the decline in axonal translation
same,GFP^MYR 5′/3′impβ1 translation in axons,[5]; control conditions,lack of effect
same,mCh^MYR 5′/3′gap43 translation in axons,[5]; control conditions,lack of effect
same,MPP+-induced degeneration of motor neuron neurites,[6],prevents mitotoxin-induced degeneration
same,MPP+-induced degeneration of motor neuron neurites,[6]; listed as G3BP1 190-208,protected against MPP+-induced degeneration
